Values quoted from earlier work, collected in publication PMC5863515, “Re-evaluation of Adrenocorticotropic Hormone and Melanocyte Stimulating Hormone Activation of GPR139 in Vitro” (Frontiers in Pharmacology, 2018).
pEC50, pKd: −log10 of the molar value.

Columns and labels:
GPR139 [1] = molecular target: T1, GPR139 (Homo sapiens, UniProt Q6DWJ6); design: expressed in transfected cells; host or cells: CHO-TREx GPR139 clone#18; method as in Liu et al., 2015; conditions: used for Cheng-Prussoff; ref Liu et al., 2015; read-out: Kd of [3H]JNJ-63533054; cited from earlier work
T1 sequence (Q6DWJ6 1-353): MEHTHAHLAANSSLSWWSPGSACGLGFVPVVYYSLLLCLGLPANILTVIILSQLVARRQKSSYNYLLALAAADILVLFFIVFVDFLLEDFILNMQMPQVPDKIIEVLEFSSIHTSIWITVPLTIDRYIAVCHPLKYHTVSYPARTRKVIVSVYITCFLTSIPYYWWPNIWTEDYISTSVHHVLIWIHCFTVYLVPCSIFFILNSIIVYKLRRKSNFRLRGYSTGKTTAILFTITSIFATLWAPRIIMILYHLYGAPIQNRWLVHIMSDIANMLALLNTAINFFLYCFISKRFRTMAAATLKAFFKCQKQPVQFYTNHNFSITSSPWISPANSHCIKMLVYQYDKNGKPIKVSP

GPR139 [2] = molecular target: T1, GPR139; design: method as in Liu et al., 2015; conditions: ref Liu et al., 2015; cited from earlier work

| Compound | pKd (GPR139 [1]) | pEC50 (GPR139 [2]) |
| --- | --- | --- |
| C[C@H](NC(=O)CNC(=O)c1cccc(Cl)c1)c1ccccc1 [JNJ-63533054, 3-chloro-N-[2-oxo-2-[[(1S)-1-phenylethyl]amino]ethyl]benzamide] | 8.00 |  |
| N[C@@H](Cc1c[nH]c2ccccc12)C(=O)O [L-Trp, L-tryptophan] |  | 3.52 to 4.52 |
